Data published in patent publication US6368788B1 (priority 1987, dated 2002).
Marks after values point to notes of the source that are not given here.

Columns and labels:
[1] = tested on: lymphocytes of lymphoid organs; assay: Immune indices (E-RFC, EA-RFC, EAC-RFC) in healthy guinea pigs; type: in vivo; settings: for E-RFC / EA-RFC / EAC-RFC: healthy guinea pigs, 1 mg/kg im daily 5 days, day 10
Procedure: Immune parameters were investigated in healthy male guinea pigs ([…]) following administration of test or control agents. Each test and control group consisted of 10 animals. […] Physiological saline was administered im to the animals of the control group. The affects of these treatments were determined on day 10 (i.e., 5 days after the last injection) by preparing cells from peripheral blood (PBL), thymus (TYM), lymph nodes (LN), spleen (SPL), and red pulp of bone marrow (BM). Cells were tested for antibody Fc receptors (EA-RFC), complement receptors (EAC-RFC), T-lymphocytes, “active” T-lymphocytes (E-RFC), B-lymphocytes (EA-RFC and EAC-RFC; according to the method of Bianco, C., et al., J. Exp. Med. 132(4):702-720 (1970). The results of these analyses are shown in TABLES 53-54, below, where data are expressed either as the number of RFC×10^9 per liter of blood, or RFC×10^3 per milligram (mg) of tissue.
Thymus, left paratracheal lymph node, and spleen were surgically removed, weighed, and homogenized in a glass Dounce homogenizer in Medium 199. Tissue fragments were removed by filtration through a chaperon. Bone marrow cell suspensions were prepared by irrigating the bone marrow canal of the pelvis with Medium 199 and homogenizing the irrigated solution. Suspensions from the different respective sources were purified by centrifuging the different cell samples on different aliquots of δ1.077 Ficoll-Urotrast for 40 minutes at 1500-1800 rpm. The lymphocyte interfaces from the gradients were collected into a siliconized test tube and washed in Medium 199. Residual red cells in the lymphocyte suspensions were lysed using 3% acetic acid in the presence of 0.05% Hessian-violet as a viability marker. Cell concentrations were determined microscopically using a Goryaev counting chamber. Cell concentrations were adjusted to 2.5×10^6/mL.
Ram erythrocytes (E) were washed 4× in saline (2000 rpm/10 min.) and suspended at a final concentration of 1% in Medium 199. For determinations of the percentage of E-rosette forming T-lymphocytes (E-RFC) in a sample, 0.1 mL of a prepared lymphocyte suspension (2.5×10^6/ml) was incubated with 0.1 mL of the 1% ram erythrocyte suspension at 37° C. for 10 min., centrifuged at 800-1000 rpm for 5 min., maintained at 4° C. for 2 hrs., and finally resuspended and counted in a Goryaev chamber. Activated T-lymphocytes (i.e., having increased E-RFC capacity) were determined by mixing the test lymphocyte suspension with E, immediately centrifuging for 5 min. at 800-1000 rpm, resuspending the cells and counting the rosettes formed in a Goryaev chamber.
Antibody-coated rabbit erythrocytes were used for determinations of EA-RFC (i.e., “activated” T-lymphocytes) according to the method of Stadecker, M. J., et al., J. Immunol. 11(6):1834-1837 (1973). Erythrocytes were prepared, incubated with an optimal dilution of anti-rabbit IgG, washed, and prepared as a 1% cell suspension in a manner analogous to those above (E-RFC, supra). EA-RFC assays were performed in a manner analogous to the description above, i.e., E-RFC, supra.
Determinations of EAC-RFC (i.e., B-lymphocytes) were performed according to the method described by Bianco, C., et al., J. Exp. Med. 132(4):702-720 (1970).

[2] = tested on: Herpes Zoster; settings: on the average
[3] = with antibiotic therapy
[4] = tested on: Staphylococcus aureus; assay: Survival after acute peritonitis with LD100 dose of antibiotic-resistant Staphylococcus aureus, prophylactic treatment; settings: for Percentage Survivors: ip prophylactic

L-Glu-L-Trp
Decrease of T-lymphocytes in LN and BM ([1]; 1 mg/kg im, 5 days): 50%
Increase of splenic and thymus T-cells ([1]; 1 mg/kg im, 5 days): 2-9%
E-RFC ([1]; BM): 11.2 ± 2.3* 10^3/mg
EA-RFC ([1]; BM): 25.1 ± 1.9* 10^3/mg
EAC-RFC ([1]; BM): 13.9 ± 2.1 10^3/mg
E-RFC ([1]; LN): 81.4 ± 7.6* 10^3/mg
EA-RFC ([1]; LN): 61.7 ± 8.2 10^3/mg
EAC-RFC ([1]; LN): 173.3 ± 12.7 10^3/mg
E-RFC ([1]; PBL): 1.59 ± 0.78 10^9/L
EA-RFC ([1]; PBL): 0.82 ± 0.09 10^9/L
EAC-RFC ([1]; PBL): 0.79 ± 0.08* 10^9/L
E-RFC ([1]; SPL): 75.9 ± 6.8 10^3/mg
EA-RFC ([1]; SPL): 81.2 ± 7.4* 10^3/mg
EAC-RFC ([1]; SPL): 141.5 ± 22.6 10^3/mg
E-RFC ([1]; TYM): 448.1 ± 51.4 10^3/mg
EA-RFC ([1]; TYM): 542.6 ± 42.3 10^3/mg
EAC-RFC ([1]; TYM): 0 10^3/mg
Increase of complement receptor bearing cells (EAC-RFC) in blood ([1]; guinea pig, in vivo): 2 fold
CD2+ lymphocytes (E-RFC), BM ([1]; treated guinea pigs): 50% ↓ (p < 0.05)
CD2+ lymphocytes (E-RFC), LN ([1]; treated guinea pigs): 32% ↓ (p < 0.05)
CD2+ lymphocytes (E-RFC), Spleen ([1]; treated guinea pigs): ns
CD2+ lymphocytes (E-RFC), Thymus ([1]; treated guinea pigs): ns
Fc-receptor+ lymphocytes (EA-RFC), LN ([1]; treated guinea pigs): ns
Fc-receptor+ lymphocytes (EA-RFC), PBL ([1]; treated guinea pigs): ns
Fc-receptor+ lymphocytes (EA-RFC), Thymus ([1]; treated guinea pigs): ns
Healing earlier than in the control group [2]: 40%
Clinical outcome [3]: accelerated healing of chronic and acute ear infections
Survival by time of single prophylactic ip injection ([4]; 24 hours before challenge): more surviving animals than if pretreatment was at 1, 48, or 72 hrs
Percentage Survivors ([4]; 24 hours, Glu-Trp dose 0.01 μg/kg (alone or + Ampicillin)): 31.5%
Percentage Survivors ([4]; 24 hours, Glu-Trp dose 0.1 μg/kg (alone or + Ampicillin)): 33.3%
Percentage Survivors ([4]; 24 hours, Glu-Trp dose 1 μg/kg (alone or + Ampicillin)): 50.0* %
Percentage Survivors ([4]; 24 hours, Glu-Trp dose 10 μg/kg (alone or + Ampicillin)): 83.3* %
Percentage Survivors ([4]; 24 hours, Glu-Trp dose 100 μg/kg (alone or + Ampicillin)): 88.9* %
Percentage Survivors ([4]; 24 hours, dose cell empty (line after 100 μg/kg)): 83.3* %
Percentage Survivors ([4]; 48 hours, Glu-Trp dose 0.01 μg/kg (alone or + Ampicillin)): 3.7%
Percentage Survivors ([4]; 48 hours, Glu-Trp dose 0.1 μg/kg (alone or + Ampicillin)): 0%
Percentage Survivors ([4]; 48 hours, Glu-Trp dose 1 μg/kg (alone or + Ampicillin)): 27.8* %
Percentage Survivors ([4]; 48 hours, Glu-Trp dose 10 μg/kg (alone or + Ampicillin)): 50.0* %
Percentage Survivors ([4]; 48 hours, Glu-Trp dose 100 μg/kg (alone or + Ampicillin)): 61.1* %
Percentage Survivors ([4]; 48 hours, dose cell empty (line after 100 μg/kg)): 72.2* %
Percentage Survivors ([4]; 72 hours, Glu-Trp dose 0.01 μg/kg (alone or + Ampicillin)): 0%
Percentage Survivors ([4]; 72 hours, Glu-Trp dose 0.1 μg/kg (alone or + Ampicillin)): 0%
Percentage Survivors ([4]; 72 hours, Glu-Trp dose 1 μg/kg (alone or + Ampicillin)): 5.6%
Percentage Survivors ([4]; 72 hours, Glu-Trp dose 10 μg/kg (alone or + Ampicillin)): 33.3* %
Percentage Survivors ([4]; 72 hours, Glu-Trp dose 100 μg/kg (alone or + Ampicillin)): 50.0* %
Percentage Survivors ([4]; 72 hours, dose cell empty (line after 100 μg/kg)): 55.6* %
Survival ([4]; ip or im routes): increased the percentage of animals surviving challenge with a lethal number of Staphylococcus aureus
Survival, multiple treatment regimen at 72, 48 and 24 hrs ([4]; single agent or combined therapy): significantly higher (p<0.05) survival than a single treatment dose
